PubChem BioAssay (NCI)
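Test compounds were applied to cells in 96-well plates for 48 hours at 5 doses. The concentration for full growth arrest is given as TGI.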

How the values were obtained:
Test in all cases: NCI anticancer screen, dose series, 48 h
UACC-257 melanoma = tested on: UACC-257 melanoma
SK-MEL-5 melanoma = tested on: SK-MEL-5 melanoma
HOP-62 NSCLC = tested on: HOP-62 NSCLC
EKVX NSCLC = tested on: EKVX NSCLC
RPMI-8226 leukemia = tested on: RPMI-8226 leukemia
A498 renal = tested on: A498 renal
HL-60(TB) leukemia = tested on: HL-60(TB) leukemia
TK-10 renal = tested on: TK-10 renal
HT29 colon = tested on: HT29 colon
NCI-H226 lung = tested on: NCI-H226 lung
OVCAR-8 ovarian = tested on: OVCAR-8 ovarian
SNB-75 CNS = tested on: SNB-75 CNS
A549 NSCLC = tested on: A549 NSCLC
HCT-15 colon = tested on: HCT-15 colon
IGROV1 ovarian = tested on: IGROV1 ovarian
KM12 colon = tested on: KM12 colon
SK-OV-3 ovarian = tested on: SK-OV-3 ovarian
SR leukemia = tested on: SR leukemia
BT-549 breast = tested on: BT-549 breast
HS 578T breast = tested on: HS 578T breast
SF-539 CNS = tested on: SF-539 CNS
HCC-2998 colon = tested on: HCC-2998 colon
CCRF-CEM leukemia = tested on: CCRF-CEM leukemia
OVCAR-4 ovarian = tested on: OVCAR-4 ovarian
SW-620 colon = tested on: SW-620 colon
NCI-H23 lung = tested on: NCI-H23 lung
HCT-116 colon = tested on: HCT-116 colon
NCI-H460 lung = tested on: NCI-H460 lung
CAKI-1 renal = tested on: CAKI-1 renal
UO-31 renal = tested on: UO-31 renal
UACC-62 melanoma = tested on: UACC-62 melanoma
SK-MEL-28 melanoma = tested on: SK-MEL-28 melanoma
NCI/ADR-RES ovarian = tested on: NCI/ADR-RES ovarian
MDA-MB-435 = tested on: MDA-MB-435
T-47D breast = tested on: T-47D breast
K-562 leukemia = tested on: K-562 leukemia
PC-3 prostate = tested on: PC-3 prostate
SK-MEL-2 melanoma = tested on: SK-MEL-2 melanoma
LOX IMVI melanoma = tested on: LOX IMVI melanoma
SF-295 CNS = tested on: SF-295 CNS
MOLT-4 leukemia = tested on: MOLT-4 leukemia
NCI-H522 lung = tested on: NCI-H522 lung
OVCAR-5 ovarian = tested on: OVCAR-5 ovarian
786-0 renal = tested on: 786-0 renal
U251 CNS = tested on: U251 CNS
MCF7 breast = tested on: MCF7 breast
MALME-3M melanoma = tested on: MALME-3M melanoma
SNB-19 CNS = tested on: SNB-19 CNS
SF-268 CNS = tested on: SF-268 CNS
OVCAR-3 ovarian = tested on: OVCAR-3 ovarian
COLO 205 colon = tested on: COLO 205 colon
RXF 393 renal = tested on: RXF 393 renal
HOP-92 NSCLC = tested on: HOP-92 NSCLC
ACHN renal = tested on: ACHN renal

SMILES: S=C(NNC1=NCCCN1)Nc1ccccc1
- TGI (UACC-257 melanoma): > 100 µM
- TGI (SK-MEL-5 melanoma): > 100 µM
- TGI (HOP-62 NSCLC): > 100 µM
- TGI (EKVX NSCLC): > 100 µM
- TGI (RPMI-8226 leukemia): 79 µM
- TGI (A498 renal): > 100 µM
- TGI (HL-60(TB) leukemia): > 100 µM
- TGI (TK-10 renal): > 100 µM
- TGI (HT29 colon): > 100 µM
- TGI (NCI-H226 lung): > 100 µM
- TGI (OVCAR-8 ovarian): > 100 µM
- TGI (SNB-75 CNS): > 100 µM
- TGI (A549 NSCLC): > 100 µM
- TGI (HCT-15 colon): > 100 µM
- TGI (IGROV1 ovarian): > 100 µM
- TGI (KM12 colon): > 100 µM
- TGI (SK-OV-3 ovarian): > 100 µM
- TGI (SR leukemia): > 100 µM
- TGI (BT-549 breast): > 100 µM
- TGI (HS 578T breast): > 100 µM
- TGI (SF-539 CNS): > 100 µM
- TGI (HCC-2998 colon): > 100 µM
- TGI (CCRF-CEM leukemia): > 100 µM
- TGI (OVCAR-4 ovarian): > 100 µM
- TGI (SW-620 colon): > 100 µM
- TGI (NCI-H23 lung): > 100 µM
- TGI (HCT-116 colon): > 100 µM
- TGI (NCI-H460 lung): > 100 µM
- TGI (CAKI-1 renal): > 100 µM
- TGI (UO-31 renal): > 100 µM
- TGI (UACC-62 melanoma): > 100 µM
- TGI (SK-MEL-28 melanoma): > 100 µM
- TGI (NCI/ADR-RES ovarian): > 100 µM
- TGI (MDA-MB-435): > 100 µM
- TGI (T-47D breast): > 100 µM
- TGI (K-562 leukemia): > 100 µM
- TGI (PC-3 prostate): > 100 µM
- TGI (SK-MEL-2 melanoma): > 100 µM
- TGI (LOX IMVI melanoma): > 100 µM
- TGI (SF-295 CNS): > 100 µM
- TGI (MOLT-4 leukemia): > 100 µM
- TGI (NCI-H522 lung): > 100 µM
- TGI (OVCAR-5 ovarian): > 100 µM
- TGI (786-0 renal): > 100 µM
- TGI (U251 CNS): > 100 µM
- TGI (MCF7 breast): > 100 µM
- TGI (MALME-3M melanoma): > 100 µM
- TGI (SNB-19 CNS): > 100 µM
- TGI (SF-268 CNS): > 100 µM
- TGI (OVCAR-3 ovarian): > 100 µM
- TGI (COLO 205 colon): > 100 µM
- TGI (RXF 393 renal): > 100 µM
- TGI (HOP-92 NSCLC): > 100 µM
- TGI (ACHN renal): > 100 µM
